33 compounds from the METLIN SMRT retention time set (Domingo-Almenara et al. 2019) can be followed below.

The structures appear in SMILES notation.

A short description of the data set: gradient 5% acetonitrile 3 min, to 50% in 2 min, to 85% in 15 min, held 3 min, 100 µL/min. As to conditions: column: Zorbax Extend-C18 2.1 x 50 mm; eluents: water / acetonitrile, 0.1% formic acid. In outline: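 Using water and acetonitrile that each contained 0.1% formic acid, mixtures of ~100 pure standards were separated at 100 μL/min on a Zorbax Extend-C18 column (2.1 × 50 mm, 1.8 μm). The HPLC fed a quadrupole time-of-flight mass spectrometer working in positive and negative ionization mode, with dead and dwell volumes of 40 μL and 900 μL. Data were acquired over 3 months. Retention time was read from computationally picked adduct peaks after manual inspection of each.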
`COc1ccc(-c2ncccc2CNS(=O)(=O)Cc2cc(F)cc(F)c2)cc1` registered an RP-LC retention time of 694 s. For the compound `CCN1C(=O)CCc2cc(NS(=O)(=O)c3ccc(C)c(F)c3)ccc21`, the RP-LC retention time turned out to be 800 s.

As to `Cc1cc(C(=O)NCCn2ncc3c(=O)n(Cc4ccc(F)cc4)cnc32)c(C)o1`, the RP-LC retention time came out at 705 s. In turn, `CCOc1ccc(N2CCn3c2nnc(C(=O)NCc2ccco2)c3=O)cc1` showed an RP-LC retention time of 684 s. For `CCc1ccc(C2=C(C)C(N3CCCN(C(=O)CC(C)(C)C)CC3)=NS2(=O)=O)cc1` the value was 949 s; for `O=C1OCC/C1=C\c1ccc(O)cc1`, 711 s; for `CCNC(=O)c1nc(C(=O)NC2CCCCC2)cs1`, 783 s. For `COc1ccc(N2CC(c3nc(-c4ccc(C(F)(F)F)cc4)no3)CC2=O)cc1` (stereo not drawn) the value was 1040 s; for `COCc1nc2cccnc2n1C1CCN(C(=O)Nc2ccc3c(c2)OCCO3)CC1`, 654 s. `O=C(Nc1cc(F)ccc1F)N1CCc2nc[nH]c2C1`: the RP-LC retention time came to 571 s.

In turn, `O=C(NCc1cccc(Br)c1)C1CCCN(c2ccc(=O)n(-c3ccc(F)cc3)n2)C1` (stereo not drawn) returned an RP-LC retention time of 1050 s. The compound `O=C(CC1CCN(C(=O)c2cc3cc(Cl)ccc3[nH]2)CC1)NCCCN1CCCC1` showed an RP-LC retention time of 644 s.

Consider `Cc1nc(-c2csc(S(=O)(=O)N3CCCC(C(=O)NCc4ccccc4Cl)C3)c2)no1` (stereo not drawn), for which the RP-LC retention time was found to be 940 s.

For `CCOc1ccc(NC(=O)NCC2CCOCC2)cc1`, the RP-LC retention time was found to be 685 s. For `Cc1nn(CC(=O)N2CCc3ccccc3C2)c(=O)c2nn(-c3ccccc3)c(C)c12` the value was 820 s; for `Cc1cnc(C(=O)N2CCCCCNC(=O)[C@@H]3CCC[C@@H]32)cn1`, 623 s; for `O=S(=O)(Nc1ccc2c(c1)OCCO2)c1ccc(-c2nnc(C3CCC3)o2)o1`, 842 s. As for `O=C(Nc1cccc(OCc2nnc(-c3ccc(Cl)cc3)o2)c1)c1cnccn1`, the RP-LC retention time amounted to 946 s.

Regarding `CN1C(=O)C(C)(C)COc2cc(NS(=O)(=O)Cc3cccc(Cl)c3)ccc21`, the RP-LC retention time was 880 s. As for `CCOC(CCNC(=O)CCC(=O)Nc1ccc2nc(N3CCN(C)CC3)cc(C)c2c1)OCC`, the RP-LC retention time amounted to 546 s. For `O=C(COc1cccc(C(F)(F)F)c1)N1CCN(c2ccc(-c3ccco3)nn2)CC1` the value was 739 s. In turn, `Cc1ccccc1CNC(=O)C1(C)CCN(S(=O)(=O)c2cccc(Cl)c2C)CC1` showed an RP-LC retention time of 1090 s.

With `CCCn1cc(S(=O)(=O)NCc2ccccc2)c2cccnc21`, the RP-LC retention time worked out at 863 s. For `COc1ccc(NC(=O)N2C[C@@H](F)C[C@H]2C(=O)N2CCc3ccccc3C2)cc1OC` the value was 732 s. For `CC1Cc2ccccc2N1C(=O)Cc1csc(NC(=O)c2ccc(=O)[nH]c2)n1` (stereo not drawn) the value was 647 s; for `CC(C)OC(=O)CSc1nnc2c(S(=O)(=O)N3CCN(c4ccc(F)cc4)CC3)cccn12`, 917 s; for `COc1ccc(-n2c(=O)c(C(=O)NC3CCCC3)c(O)c3cccnc32)cc1`, 1170 s. In turn, `CNC(=O)N1CCCC(c2cccc(C(=O)N3CCN(c4ccccc4Cl)CC3)c2)C1` (stereo not drawn) returned an RP-LC retention time of 904 s.

`CCC(=O)NCc1cnn(-c2ccc(C(=O)Nc3ccc4c(c3)OCCO4)cc2)c1` yielded an RP-LC retention time of 702 s. For `Cc1[nH]c2ccc(F)cc2c1CCNCc1ccccn1` the value was 572 s.

Consider `CC(=O)c1cccc(NC(=O)Cn2c(=O)nc(NC3CCCC3)c3ccccc32)c1`, for which the RP-LC retention time worked out at 682 s. On to `CCn1nccc1C(=O)Nc1cccc(-c2nnc3n2CCCC3)c1`, for which the RP-LC retention time came out at 644 s. For `O=C(O)C1CCN(c2nc3ccc(-c4ccncc4)nc3s2)CC1` the value was 588 s.
